Source: US11993594B2, “IRAK inhibitors and method for making and using” (Rigel Pharmaceuticals, Inc., priority 2016, dated 2024)
Counter-ions that a name gives are not always drawn. Like-named read-outs stand apart in the source and are kept apart here.

Tests used:
[1] = test system: LPS induced IL-23 (p19/p40) in DC cells; assay: IL23-p19 ELISA, dendritic (DC) cells differentiated from human PBMC, LPS stimulated; type: cell-based; conditions: LPS 1 μg/ml, 18 hours, 10 pt
Experimental: Compound Screening Using DC Cells
Human PBMC cells (400 million) obtained from the vendor were transferred into a T-175 flask containing 15 ml RPMI media (10% FBS) and incubate for 2 hours at 37° C. After 2 hours, the media including floating cells was aspirated out carefully and 12 ml of fresh RPMI media (10% FBS) containing GMCSF (100 ng/ml) and IL4 (20 ng/ml) was added, and the flask was kept in a 37° C. incubator for 7 days.
After 3 days, fresh GMCSF (100 ng/ml) and IL4 (20 ng/ml) were added to the flask and the incubation continued. After 7 days, the fully differentiated cells were harvested by spinning down (1200 rpm/5 min) and aspirating the media. The cells were suspended in fresh RPMI media (10% FBS) containing 50 ng/ml IFNγ (1000 U/ml) and then plated (50K/well in 100 μl) onto a white clear bottom 96 well plate and left in a 37° C. incubator for 24 hours.
After 24 hours incubation, 100 μl of RPMI media was added containing 2× concentrated test compound per well to the above cell-culture media (final concentration becomes 1×) and the plates were pre-incubated for 1 hour at 37° C. before stimulating with LPS.
After 1 hour compound pre-incubation, 10 μl per well of 20× concentrated LPS solution in RPMI media was added to give a final concentration of 1 μg/ml. The mixture was shaken and incubated the plates at 37° C. for an additional 18 hours.
155 μl of the supernatant was harvested from each well carefully (without the tip touching the bottom of the well) and to the remaining 50 μl/well of the cell culture plate was added 50 μl of Cell Titer Glo reagent. The mixture was incubated for 1-2 minutes on a shaker and the plate was read for luminescence intensity to determine the compound cytotoxicity. The cell culture supernatant collected above was used to carry out IL23 ELISA (65 μl—Supernatant) and IL10 ELISA (90 μl—Supernatant) as described below.
Human IL-23 (p19/p40) ELISA Protocol (e-Biosciences)
To 10.5 ml PBS add 50 μl of anti-IL23 (p19) was added capture antibody (2.5 μg/ml). The mixture was mixed well and 100 μl of the coating solution was added to each well of the 96 well white plates from Pierce. The wells were covered and incubated overnight at 4° C.
The anti-IL23 (p19)-antibody-coated plates were washed 2× using TBST (use plate washer) and blocked using 200 μl of 0.5% Casein for 1.5 to 2 hours at room temperature with shaking.
The plates were washed 2× using TBST and the supernatant was transferred (65 μl/well) to the above pre-blocked/IL23(p19)-antibody-coated 96 well plate, and incubated at room temperature for 1.5 hours with shaking.
The plates were washed 4× using TBST (plate washer) and 100 μl/well detection antibody solution prepared from 2 μl of biotin labeled anti-IL-12 (p40/p70) antibody in 11 ml 1% BSA/PBS solution (1-5000 dilution) was added. The plates were incubated for 1 hour with shaking at Room temperature.
Again, the plates were washed 4× with TBST and 100 μl of HRP labeled Streptavidin (R&D Systems) solution (10 μl/10 ml 1% BSA solution) was added, and the plates were incubated at room temperature for another 45 minutes with shaking.
After 45 minutes, the plates were washed with TBST 4× and 100 μl/well Super Signal ELISA Pico Chemiluminescent Substrate from Pierce (3.5 ml A+3.5 ml B+3.5 ml MQ water) was added. The plates were shaken for 1-2 minutes then read on a plate reader. […]

[2] = test system: LPS Induced IL23p19 in THP-1 Cells; assay: LPS Induced IL23p19 in THP-1 Cells (with IFNγ Primed) Assay; type: cell-based, human; conditions: THP-1 cells primed with IFNγ 50 ng/mL, LPS 1 ug/mL, 18 hours, 10 pt, read-out: IL23-p19 ELISA, THP1-IFNγ, LPS, 10 pt EC50
Description: LPS Induced IL23p19 in THP-1 Cells (with IFNγ Primed) Assay
THP-1 Cells (ATCC, Cat #TIB-202), Dimethyl Sulfoxide (DMSO) (Sigma-Aldrich, Cat #D2650), RPMI 1640 (Cellgro, Cat #10-040-CM), Fetal Bovine Serum (Sigma, Cat #F4135), Albumin From Bovine Serum (BSA) (Sigma-Aldrich, Cat #A7906), LPS (Serotype K-235, Sigma, Product Number L 2143), IFNγ (Peprotech, Cat #300-02) Capture antibody: Human IL-23p19 ELISA (e-Bioscience, Cat. #14-7238-85), Detection antibody: Primary Mouse Biotinylated anti-human IL-12(p40/p70) (e-Bioscience, Cat. #13-7129-85), Secondary HRP-conjugated Streptavidin (R&D Systems, Cat #DY998), 1×PBST Washing Buffer (PBS-Tween tablet) (VWR International, Cat #80058-558), ELISA Blocking Buffer (PBS with 1% BSA), ELISA Dilution Buffer (PBS with 1% BSA), 384 Well Flat-Bottom, MaxiSorp Black Immuno Plates (Thermo Scientific, Cat #12-565-346), 384 Well Flat-Bottom, White Tissue Culture Plates (Thermo Scientific, Cat #12-565-343), Super Signal ELISA Pico Chemiluminescent Substrate (Thermo Scientific, Cat #37070), Cell Titer Glo reagent (Promega, Cat #G7573), Positive control, IKK2VI inhibitor (Calbiochem, Cat #401483), AquaMax 4000 plate washer (Molecular Devices), Luminometer, Wallac Victor2 1420 Multilabel Counter.
On day 1, 50K/well THP-1 cells were seeded and primed with IFNγ (50 ng/mL) in 384-well plates for about 18 hours in RPMI media with 10% FBS. On day 2, the compound was serially diluted in DMSO from 5 mM in 3-fold dilutions, and then diluted 1:125 in RPMI media with 10% FBS. 50 μL/well 2× compound was added to 50 μL/well THP-1 cells (with IFNγ primed) in duplicate in 384 well tissue culture plates. The cells were pre-incubated with compound for 1 hour at 37° C., 5% CO2 before addition of 10 μL/well 11×LPS to give a final concentration of 1 ug/mL LPS. Day 3, after stimulation for 18 hours at 37° C., 5% CO2, the assay plate was centrifuged and 70 μL/well supernatant was harvested. IL-23p19 protein in 70 µL/well of supernatant was measured by sandwich ELISA, and 25 μl/well Cell Titer Glo reagent was added to the remaining cells to measure compound toxicity.
Human IL-23p19 Sandwich ELISA:
Maxisorp immuno ELISA plates were pre-coated with 25 μL/well of anti-IL-23p19 capture antibody (2.5 ug/mL) in PBS overnight at room temperature. After washing with 1×PBST, the plates were blocked using 100 μL/well of 1% BSA in PBS for 2 hours at room temperature. The plates were washed three times with 1×PBST and 70 μL/well supernatant were added. The plates were incubated at room temperature for 2 hours with shaking and washed three times with 1×PBST. 25 μL/well of biotin labeled anti-IL-12(p40/p70) detection antibody (100 ng/mL) in PBS with 1% BSA was added and the plates were incubated at room temperature for 2 hours with shaking. After washing three times with 1×PBST, 25 μL/well of streptavidin-HRP (1:200) in PBS with 1% BSA was added and the plates were incubated at room temperature for 20 minutes with shaking. The plates were washed three times with 1×PBST and 25 μL/well of Super Signal ELISA Pico Chemiluminescent Substrate were added. The plates were read with a luminometer, and the chemiluminescence values were entered into Athena (Rigel) for curve fitting, EC50 calculation, and database storage. […]

| EC50 ([1]; Table 1, IFNγ 50 ng/ml) [nM] | EC50 ([2]; Homo sapiens, Table 1) [nM] | EC50 ([1]; Table 3, IFNγ 50 ng/ml) [nM] | EC50 ([2]; Table 3) [nM] | EC50 ([1]; Table 2, IFNγ 50 ng/ml) [nM] | EC50 ([2]; Table 1) [nM] | EC50 ([2]; Table 2) [nM] | SMILES |
| --- | --- | --- | --- | --- | --- | --- | --- |
| 33.4 | 4.8 |  |  |  |  |  | CCO[C@H]1CC[C@H](n2cc(NC(=O)c3coc(-c4cn[nH]c4)n3)c(-c3cnccn3)n2)CC1 [Compound I-1, N-(1-((1r,4r)-4-ethoxycyclohexyl)-3-(pyrazin-2-yl)-1H-pyrazol-4-yl)-2-(1H-pyrazol-4-yl)oxazole-4-carboxamide] |
| 46.5 | 78 |  |  |  |  |  | O=C(Nc1cn(C2CCC(N3CCOCC3)CC2)nc1-c1cnccn1)c1coc(-c2c[nH]nc2F)n1 (stereo not drawn) [Compound I-35, 2-(3-fluoro-1H-pyrazol-4-yl)-N-(1-((1r,4r)-4-morpholinocyclohexyl)-3-(pyrazin-2-yl)-1H-pyrazol-4-yl)oxazole-4-carboxamide formic acid salt] |
| 451 | 85.3 |  |  |  |  |  | O=C(Nc1cn(CCOCC(F)(F)F)nc1-c1ccccn1)c1coc(-c2cn[nH]c2)n1 [Compound I-15, 2-(1H-pyrazol-4-yl)-N-(3-(pyridin-2-yl)-1-(2-(2,2,2-trifluoroethoxy)ethyl)-1H-pyrazol-4-yl)oxazole-4-carboxamide] |
|  |  | 36.9 | 43.4 |  |  |  | CCO[C@H]1C[C@@H](n2cc(NC(=O)c3coc(-c4cn[nH]c4)n3)c(-c3ccccn3)n2)C1 [Compound I-22, N-(1-((1s,3s)-3-ethoxycyclobutyl)-3-(pyridin-2-yl)-1H-pyrazol-4-yl)-2-(1H-pyrazol-4-yl)oxazole-4-carboxamide] |
| 30.9 |  |  |  | 30.9 | 69.9 | 69.9 | CCO[C@H]1C[C@@H](n2cc(NC(=O)c3coc(-c4cn[nH]c4)n3)c(-c3nc(F)ccc3F)n2)C1 [Compound I-10, N-(3-(3,6-difluoropyridin-2-yl)-1-((1s,3s)-3-ethoxycyclobutyl)-1H-pyrazol-4-yl)-2-(1H-pyrazol-4-yl)oxazole-4-carboxamide] |
| 207 | 976 |  |  |  |  |  | CCO[C@H]1CC[C@H](n2cc(NC(=O)c3coc(-c4cn[nH]c4)n3)c(-c3cc(F)cc(F)n3)n2)CC1 [Compound I-29, N-(3-(4,6-difluoropyridin-2-yl)-1-((1r,4r)-4-ethoxycyclohexyl)-1H-pyrazol-4-yl)-2-(1H-pyrazol-4-yl)oxazole-4-carboxamide] |
| 75.7 |  |  |  | 75.7 | 28 | 28 | O=C(Nc1cn([C@H]2CC[C@H](N3CCOCC3)CC2)nc1-c1nc(C(F)(F)F)ccc1F)c1coc(-c2cn[nH]c2)n1 [Compound I-7, N-(3-(3-fluoro-6-(trifluoromethyl)pyridin-2-yl)-1-((1r,4r)-4-morpholinocyclohexyl)-1H-pyrazol-4-yl)-2-(1H-pyrazol-4-yl)oxazole-4-carboxamide] |
| 15.6 |  |  |  | 15.6 | 60.3 | 60.3 | CCO[C@H]1CC[C@H](n2cc(NC(=O)c3coc(-c4cnn(COP(=O)(O)O)c4)n3)c(-c3cnccn3)n2)CC1 [Compound I-17, (4-(4-((1-((1r,4r)-4-ethoxycyclohexyl)-3-(pyrazin-2-yl)-1H-pyrazol-4-yl)carbamoyl)oxazol-2-yl)-1H-pyrazol-1-yl)methyl dihydrogen phosphate] |
| 973 | 688 |  |  |  |  |  | CCO[C@H]1CC[C@H](n2cc(NC(=O)c3coc(-c4cn[nH]c4)n3)c(-c3nc(C(F)(F)F)ccc3F)n2)CC1 [Compound I-31, N-(1-((1r,4r)-4-ethoxycyclohexyl)-3-(3-fluoro-6-(trifluoromethyl)pyridin-2-yl)-1H-pyrazol-4-yl)-2-(1H-pyrazol-4-yl)oxazole-4-carboxamide] |
| 18.8 | 7.8 |  |  |  |  |  | O=C(Nc1cn([C@H]2C[C@@H](N3CCOCC3)C2)nc1-c1cnccn1)c1coc(-c2cn[nH]c2)n1 [Compound I-34, N-(1-((1s,3s)-3-morpholinocyclobutyl)-3-(pyrazin-2-yl)-1H-pyrazol-4-yl)-2-(1H-pyrazol-4-yl)oxazole-4-carboxamide] |
| 217 | 238 |  |  |  |  |  | COCCOCCn1cc(NC(=O)c2coc(-c3cn[nH]c3)n2)c(-c2ccccn2)n1 [Compound I-24, N-(1-(2-(2-methoxyethoxy)ethyl)-3-(pyridin-2-yl)-1H-pyrazol-4-yl)-2-(1H-pyrazol-4-yl)oxazole-4-carboxamide] |
|  |  | 71 | 270 |  |  |  | O=C(Nc1cn(C2CCC2)nc1-c1ccccn1)c1coc(-c2cn[nH]c2)n1 [Compound I-23, N-(1-cyclobutyl-3-(pyridin-2-yl)-1H-pyrazol-4-yl)-2-(1H-pyrazol-4-yl)oxazole-4-carboxamide] |
